Results taken from PubChem BioAssay AID1963845 (Molecular Pharmacology Branch, DTP, NCI, 2024).
Several values for one entry are separate records, joined by “and”; a condition that tells them apart may be missing. Equal values may be shown once.

Tested on: 429239-143-T-J1-PDC complex spheroid viability
Assay: Anticancer human tumor 429239-143-T-J1-PDC patient-derived small cell lung carcinoma cell line growth inhibition [POLQ]
Conditions: for viability, T/C: stronger effect = lower value
Protocol: Multicellular complex tumor spheroid response to Polymerase (POL) inhibitors (novobiocin, ART-558, RP6685) in combination with a variety of drugs and investigational agents in selected tumor cell lines
The POL inhibitors (novobiocin, ART-558, and RP6685) were evaluated both individually and in combination with standard of care and investigational anticancer small molecules within a complex spheroid model of solid tumors. . Complex spheroids include a stromal component modeled by human endothelial cells (HUVEC) and fibroblasts modeled by human mesenchymal stem cells (MSCs). The concentration ranges selected for each drug and investigational agent were based upon clinically achievable concentrations if the clinical Cmax of the agent was known.
Compounds. The drugs and investigational agents: novobiocin (NSC847541), ART-558 (NSC835418), RP-6685 (NSC848927), peposertib (NSC802822), ceralasertib (NSC780249), elimusertib (NSC800525), camonsertib (NSC841442), AZD-1390 (NSC803789), olaparib (NSC753686), talazoparib (NSC767125), rucaparib (NSC756644), sotorasib (NSC818433), MRTX-1133 (NSC836407), SN-38 (NSC673596), topotecan (NSC609699), epotoside (NSC141540), doxorubicin (NSC123127), gemcitabine (NSC613327), 5-fluorouracil (NSC19893), paclitaxel (NSC125973), vemurafenib (NSC761431), MSA-2 (NSC828583), SN-011 (NSC837082), adavosertib (NSC754352), prexasertib (NSC758257), carboplatin (NSC241240) and oxaliplatin (NSC266046), were obtained from the National Cancer Institute (NCI) Developmental Therapeutics Program Chemical Repository (21). The FDA-approved anticancer drug set is available from the Developmental Therapeutics Program at https://dtp.cancer.gov/organization/dscb/obtaining/. […] The stock solutions were prepared in dimethyl sulfoxide (DMSO, Sigma-Aldrich, St. Louis, MO, cat. D2650), except for the platinum compounds which were prepared in saline (Quality Biological, Gaithersburg, MD, cat. 114-055-101), at 800-fold the tested concentration and stored at -70 degrees C prior to their use. All drugs and investigational agents were tested over a range starting from a high concentration at or near the clinical Cmax and decreasing in half-log increments. If the clinical Cmax for an agent had not been determined, the highest concentration tested was 10 microM, except for SN-38, which was tested at a high concentration of 1 microM.
Cell Culture. All cells were maintained in an incubator at 37 degrees C and 5% CO2 with 95% humidity. The PDC lines were cultured according to standard operating procedures established by the NCI PDMR (https://pdmr.cancer.gov). Table 3 of the manuscript, lists the cell lines along with the number of the three cell types plated to form the mct-spheroids and media for tumor cell growth. After thawing, all PDC lines, except 997537-175-T-J1-PDC and 415267-285-R-J2-PDC, were cultured in Matrigel-coated flasks prepared with a working solution of 1X Ham's F-12 nutrient mix, without supplementation (Thermo Fisher Scientific, cat. 11765054), 100 U/mL penicillin-streptomycin (Thermo Fisher Scientific, cat. 15140122), and 2.5% Matrigel (Corning Inc., Corning, NY, cat. 354248) for the first three passages. The two PDC lines 997537-175-T-J1-PDC and 415267-285-R-J2-PDC were cultured on uncoated flasks. The 857933-349-R-J2-PDC line was cultured in 6C/Colon 1B media containing advanced DMEM/F-12 (Thermo Fisher Scientific, cat. 12634028), 10 mM HEPES (Thermo Fisher Scientific, cat. 15630080), 1X GlutaMAX supplement (Thermo Fisher Scientific, cat. 35050061), 0.1 mg/mL primocin (InvivoGen, San Diego, CA, cat. ant-pm-2), 10% defined fetal bovine serum, heat inactivated (HyClone Laboratories Inc., Logan, UT, cat. SH30070.03HI), 50% L-WRN conditioned media (ATCC, cat. CRL-3276), 1.25 mM N-Acetyl-L-cysteine (Sigma-Aldrich, cat. A9165), 10 mM nicotinamide (Sigma-Aldrich, cat. N0636), 1X B-27 supplement (Thermo Fisher Scientific, cat. 17504044), 1X N-2 supplement (Thermo Fisher Scientific, cat. […]

[1] = curve of first compound, second compound 0.0316 µM
[2] = curve of first compound, second compound 0.1 µM
[3] = curve of first compound, second compound 0.316 µM
[4] = curve of first compound, second compound 1 µM
[5] = curve of first compound, second compound 3.16 µM
[6] = curve of first compound, second compound 10 µM
[7] = second compound 0.0316 µM, first compound 0.0316 µM
[8] = second compound 0.0316 µM, first compound 0.1 µM
[9] = second compound 0.1 µM, first compound 0.0316 µM
[10] = second compound 0.1 µM, first compound 0.1 µM
[11] = second compound 0.316 µM, first compound 0.0316 µM
[12] = second compound 0.316 µM, first compound 0.1 µM
[13] = second compound 1 µM, first compound 0.0316 µM
[14] = second compound 1 µM, first compound 0.1 µM
[15] = second compound 3.16 µM, first compound 0.0316 µM
[16] = second compound 3.16 µM, first compound 0.1 µM
[17] = second compound 10 µM, first compound 0.0316 µM
[18] = second compound 10 µM, first compound 0.1 µM
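Also: luminescence signal used as surrogate measure of viable cells; spheroids exposed to compounds for seven days before readout.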
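For viability, T/C in this document: 100% = DMSO vehicle control viability as luminescence relative to vehicle.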

O=c1[nH]cc(F)c(=O)[nH]1 + Cc1cccc(N(C)C(=O)C2C(O)CCN2c2nc(C)cc(C(F)(F)F)c2C#N)c1
IC50 [1]: > 10000 nM
IC50 [2]: 6820 nM
IC50 [3]: > 10000 nM
IC50 [4]: 9330 nM
IC50 [5]: > 10000 nM
IC50 [6]: 9510 nM
viability, T/C [7]: 108%
viability, T/C [8]: 109%
viability, T/C (second compound 0.0316 µM, first compound 0.316 µM): 101%
viability, T/C (second compound 0.0316 µM, first compound 1 µM): 105%
viability, T/C (second compound 0.0316 µM, first compound 3.16 µM): 65.9%
viability, T/C (second compound 0.0316 µM, first compound 10 µM): 54.5%
viability, T/C [9]: 106%
viability, T/C [10]: 92.3%
viability, T/C (second compound 0.1 µM, first compound 0.316 µM): 104%
viability, T/C (second compound 0.1 µM, first compound 1 µM): 91.1%
viability, T/C (second compound 0.1 µM, first compound 3.16 µM): 61.4%
viability, T/C (second compound 0.1 µM, first compound 10 µM): 44.4%
viability, T/C [11]: 96.6%
viability, T/C [12]: 112%
viability, T/C (second compound 0.316 µM, first compound 0.316 µM): 101%
viability, T/C (second compound 0.316 µM, first compound 1 µM): 104%
viability, T/C (second compound 0.316 µM, first compound 3.16 µM): 56.5%
viability, T/C (second compound 0.316 µM, first compound 10 µM): 50.8%
viability, T/C [13]: 105%
viability, T/C [14]: 110%
viability, T/C (second compound 1 µM, first compound 0.316 µM): 120%
viability, T/C (second compound 1 µM, first compound 1 µM): 87.8%
viability, T/C (second compound 1 µM, first compound 3.16 µM): 72.4%
viability, T/C (second compound 1 µM, first compound 10 µM): 47.7%
viability, T/C [15]: 95.9%
viability, T/C [16]: 97.2%
viability, T/C (second compound 3.16 µM, first compound 0.316 µM): 114%
viability, T/C (second compound 3.16 µM, first compound 1 µM): 78.2%
viability, T/C (second compound 3.16 µM, first compound 3.16 µM): 56.5%
viability, T/C (second compound 3.16 µM, first compound 10 µM): 47.6%
viability, T/C [17]: 98.7%
viability, T/C [18]: 93.9%
viability, T/C (second compound 10 µM, first compound 0.316 µM): 97.5%
viability, T/C (second compound 10 µM, first compound 1 µM): 83.9%
viability, T/C (second compound 10 µM, first compound 3.16 µM): 65%
viability, T/C (second compound 10 µM, first compound 10 µM): 49.2%

Cn1ncnc1[C@H]1c2n[nH]c(=O)c3cc(F)cc(c23)N[C@@H]1c1ccc(F)cc1
viability, T/C (compound 0.000316 µM): 101% and 105% and 93.1%
viability, T/C (compound 0.001 µM): 96.8% and 94.6% and 88.7%
viability, T/C (compound 0.00316 µM): 78% and 94.1% and 76.6%
viability, T/C (compound 0.01 µM): 71% and 86% and 60.1%
viability, T/C (compound 0.0316 µM): 40.5% and 78.3% and 47.5%
viability, T/C (compound 0.1 µM): 30.4% and 63.1% and 29%
IC50 (curve of compound): 23.4 nM and > 100 nM

O=C(c1cc(Cc2n[nH]c(=O)c3ccccc23)ccc1F)N1CCN(C(=O)C2CC2)CC1
viability, T/C (compound 0.0316 µM): 95.1% and 91.7% and 93.1%
viability, T/C (compound 0.1 µM): 82.3% and 93.9% and 102%
viability, T/C (compound 0.316 µM): 68.2% and 72.8% and 97.3%
viability, T/C (compound 1 µM): 69.8% and 78% and 84.5%
viability, T/C (compound 3.16 µM): 30.4% and 29.6% and 69.6%
viability, T/C (compound 10 µM): 16.1% and 16.5% and 9.45%
IC50 (curve of compound): 1590 nM and 1930 nM and 4520 nM

CC[C@@]1(O)C(=O)OCc2c1cc1n(c2=O)Cc2cc3c(CN(C)C)c(O)ccc3nc2-1 + Nc1ccc(C#CCN(C(=O)Cc2ncc(C(F)(F)F)cc2C(F)(F)F)c2ccc(F)cc2)nn1
IC50 [1]: 16.9 nM
IC50 [2]: 17.3 nM
IC50 [3]: 17.9 nM
IC50 [4]: 16.7 nM
IC50 [5]: 17.7 nM
IC50 [6]: 17.7 nM
viability, T/C (second compound 0.0316 µM, first compound 0.000316 µM): 95.7%
viability, T/C (second compound 0.0316 µM, first compound 0.001 µM): 103%
viability, T/C (second compound 0.0316 µM, first compound 0.00316 µM): 106%
viability, T/C (second compound 0.0316 µM, first compound 0.01 µM): 84.2%
viability, T/C [7]: 9.5%
viability, T/C [8]: 5.15%
viability, T/C (second compound 0.1 µM, first compound 0.000316 µM): 103%
viability, T/C (second compound 0.1 µM, first compound 0.001 µM): 95.5%
viability, T/C (second compound 0.1 µM, first compound 0.00316 µM): 103%
viability, T/C (second compound 0.1 µM, first compound 0.01 µM): 86.9%
viability, T/C [9]: 9.05%
viability, T/C [10]: 5.15%
viability, T/C (second compound 0.316 µM, first compound 0.000316 µM): 101%
viability, T/C (second compound 0.316 µM, first compound 0.001 µM): 106%
viability, T/C (second compound 0.316 µM, first compound 0.00316 µM): 96.5%
viability, T/C (second compound 0.316 µM, first compound 0.01 µM): 92.5%
viability, T/C [11]: 7.36%
viability, T/C [12]: 9.85%
viability, T/C (second compound 1 µM, first compound 0.000316 µM): 107%
viability, T/C (second compound 1 µM, first compound 0.001 µM): 100%
viability, T/C (second compound 1 µM, first compound 0.00316 µM): 99.6%
viability, T/C (second compound 1 µM, first compound 0.01 µM): 82.9%
viability, T/C [13]: 8.94%
viability, T/C [14]: 5.82%
viability, T/C (second compound 3.16 µM, first compound 0.000316 µM): 101%
viability, T/C (second compound 3.16 µM, first compound 0.001 µM): 98%
viability, T/C (second compound 3.16 µM, first compound 0.00316 µM): 99.8%
viability, T/C (second compound 3.16 µM, first compound 0.01 µM): 89.3%
viability, T/C [15]: 9.67%
viability, T/C [16]: 5.18%
viability, T/C (second compound 10 µM, first compound 0.000316 µM): 104%
viability, T/C (second compound 10 µM, first compound 0.001 µM): 103%
viability, T/C (second compound 10 µM, first compound 0.00316 µM): 93.5%
viability, T/C (second compound 10 µM, first compound 0.01 µM): 87.8%
viability, T/C [17]: 11.9%
viability, T/C [18]: 7.53%
